pKd: −log10 of the molar value. Several values for one entry are separate records, joined by “and”; a condition that tells them apart may be missing. Equal values may be shown once.
molecular target: Acetylcholine-binding protein (Lymnaea stagnalis, UniProt P58154); assay: Interaction Assay; conditions: pH 7.4; 25 °C
From the text: Interaction assay using AChBP.

Sequence of Acetylcholine-binding protein (P58154 whole entry): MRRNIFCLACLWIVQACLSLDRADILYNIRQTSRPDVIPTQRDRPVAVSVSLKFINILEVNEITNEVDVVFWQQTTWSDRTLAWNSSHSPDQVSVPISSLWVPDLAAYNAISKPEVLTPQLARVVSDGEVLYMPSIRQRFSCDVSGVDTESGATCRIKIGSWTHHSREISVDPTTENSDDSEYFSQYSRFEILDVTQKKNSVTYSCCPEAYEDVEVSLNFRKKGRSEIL

CC(=O)OCC[N+](C)(C)C [2-acetoxyethyl(trimethyl)ammonium;perchlorate] was tested, and the pKd was 6.34 and 5.41.

First: CN(C)CCc1cccnc1 [Quinuclidine analogue, 1]
Second: N[C@@H]1C2CCN(CC2)C1Cc1cccnc1 (stereo not given in full) [Quinuclidine analogue, 2]
The pKd of the first is 1.09 log units lower: 5.37 for the first, 6.46 for the second. The second binds more tightly here.

Going from O=C(N[C@@H]1C2CCN(CC2)C1Cc1cccnc1)c1ccccc1 (stereo not given in full) [Quinuclidine analogue, 3] to O=C(N[C@@H]1C2CCN(CC2)C1Cc1cccnc1)c1cc2ccccc2o1 (stereo not given in full) [Quinuclidine analogue, 5], the pKd rises from 6.85 to 7.89 (1.04 log units). The second binds more tightly here.

From BindingDB's records for doi:10.1021/bi1006354 (Beactica, 2010)
